The source of these data is patent US20240197643A1, “ORAL DELIVERY OF NANOPARTICLES FOR KIDNEY DISEASE” (UNIVERSITY OF SOUTHERN CALIFORNIA, priority 2020, published 2024).

The conditions of series [1]: cited from earlier work.
The subject of series [2] is cortical collecting duct (CCD). The following applies: identified in the literature; cited from earlier work.
Series [3] is described as follows: Histology and intestinal localization after oral gavage. The note with it: 24 h after oral gavage. The series is classed as in vivo, C57BL/6 J mice.
Source text: Following ex vivo imaging, the brain, heart, lungs, liver, kidneys, spleen, intestines, and bladder were immediately frozen and embedded in OCT (Tissue Tek, Sakura Finetek, Torrance, CA, USA). 10 μm sections were obtained (CM3050 S Cryostat, Leica, Nussloch, Germany) and placed on Superfrost Plus slides (Fisherbrand, Waltham, MA, USA). Tissue sections were stained with hematoxylin & eosin (H&E) and imaged (Leica DMi8, Leica, Wetzlar, Germany, N=3). For staining of intestinal mucin, tissue sample were processed with an alcian blue 1%, pH 2.5 stain kit (Newcomer Supply, Middleton, WI, USA). Briefly, tissue sections on slides were washed in acetic acid for 3 min, incubated in alcian blue for 30 min at 4° C. in a humidified chamber, and counterstained with Nuclear Fast Red (Vector Laboratories, Burlingame, CA, USA). Samples were mounted using VectaMount™ (Vector Laboratories, Burlingame, CA, USA).
Series [4] can be described thus: Serum fluorescence and absolute bioavailability after oral gavage. In kind it is in vivo, C57BL/6 J mice. The following applies: oral gavage 10 mg/kg rhodamine, relative to IV. On the procedure:
Blood draws were performed either retro-orbitally or via tail vein at 30 min, 3, 6, 12, 24, 36, and 48 h post-administration. Fluorescence was measured in serum and quantified using a rhodamine calibration curve developed in mouse serum.

The next series relates to Caco-2 cells. The experiment in a line: Cellular uptake and transport of CS-NP with pathway inhibitors. In kind it is in vitro ADME, Human. The note with it: same conditions as CS-NP R. On the procedure: To assess the cellular uptake pathways of chitosan nanoparticles, Caco-2 cells were pretreated with medium containing colchicine (transcytosis inhibitor, 10 μM, for 60 min) or wortmannin (macropinocytosis inhibitor, 0.06 mM, for 3 h) before 100 μL of 100 μM rhodamine-loaded chitosan nanoparticles (CS-NP R) was administered in the apical chamber. The amount of rhodamine fluorescence was measured in the basolateral chamber over the course of 4 h.

For a further series, the system named is Caco-2 cell monolayers. Briefly: Transepithelial resistance (TER) surveillance. The series is classed as cell-based, Human. The note with it: up to 3 days after administration. The method, then:
For transport and monolayer resistance experiments, Caco-2 cell monolayers were seeded onto Transwell inserts (Corning, NY, USA; diameter 6.5 mm, growth area 0.33 cm^2, pore size 0.4 μm), at an initial density of 3×10^5 cell/cm2 and maintained for 21 days in complete medium to form a confluent monolayer. The change of TER, representing the tightness of the cell monolayers, was measured by an EVOM2 Epithelial Voltohmmeter (World Precision Instruments, USA). Monolayers reaching steady-state values in the range of 300-400 Ω-cm^2 were used for studies.
Additionally, the effect of paracellular transport through tight junctions was monitored via TER of Caco-2 cells seeded on Transwell inserts. TER measurements were performed daily for three days prior to treatment with CS-NP R, free Rhodamine (free R), or PBS control to establish baseline measurements. TER was monitored every 6 h, then again on day 2 and 3 post-administration.

A short description of series [5]: Ex vivo imaging of orally administered CS-NP. The series is classed as in vivo, C57BL/6 J mice. The following applies: oral gavage 10 mg/kg rhodamine. On the procedure: To assess the biodistribution of CS-NP semi-quantitatively, 6-7 week old male and female C57BL/6 J mice (Jackson Laboratories, Bar Harbor, ME, USA) were orally gavaged with 10 mg/kg of rhodamine loaded in 200 μL of 500 μM CS-NP R, 10 mg/kg of free R, or PBS control. Mice were euthanized after 3, 24, or 48 h […] and organs (e.g., brain, heart, lungs, liver, kidneys, spleen, intestines, and bladder) were excised and imaged ex vivo on an AMI HTX in vivo imaging system (Spectral Instruments Imaging, Tucson, AZ, USA). The fluorescence signal was quantified via Aura software (Spectral Instruments Imaging, Tucson, AZ, USA, N ≥4), and the background was subtracted from the PBS treated group. The mean radiance (photons/s/cm2/sr) for each organ was quantified as a region of interest, and % of total organ fluorescence was obtained by dividing each organ by the sum of all the organ regions. Urine and blood samples were collected following organ harvest and stored at −20° C. until further analysis. All animal procedures followed NIH guidelines for the care and use of laboratory animals and were approved by the University of Southern California's Institutional Animal Care and Use Committee.

Another series concerns the target megalin (mouse) (UniProt A2ARV4). The experiment in a line: confocal immunohistochemistry of mouse kidney sections 24 h after i.v. injection; colocalization of Cy7 micelle signal with anti-megalin Alexa Fluor 488 signal (ImageJ coloc2).
The conditions of series [6]: human, in vivo; cited from earlier work.
A short description of the next series: Solubility in MQ. The series is classed as physicochemical. The note with it: MQ (water).
A further series has as its system AMPK. The experiment in a line: Transwell intestinal cell model, pAMPK/AMPK ELISA of basolateral mpkCCDc14. In kind it is cell-based. The note with it: 300 μM, up to 48 h, across Caco2 monolayer on transwell insert. An excerpt:
FIG. 17A provides a transwell schematic of mpkCCDc14 cell monolayers, with a Caco2 cell monolayer seeded on the transwell insert. […] Chitosan Disrupts Intestinal Tight Junctions.
In general terms: In an ELISA, binding on a coated surface is turned into a signal by an enzyme label.

Series [7] has as its system epithelial sodium channel (ENaC). The experiment in a line: ENaC current measurement in mpkCCDc14 monolayers. The series is classed as cell-based, Mouse. The following applies: after 48 h, mpkCCDc14 cells, 300 μM met. The method, then:
To validate the therapeutic efficacy of met on the reduction of ENAC current, TER and potential difference (PD) measurements were made on mpkCCDc14 cells seeded on Transwell filters as described above. ENaC-dependent equivalent short-circuit currents (leq) was estimated by Ohm's law, dividing the measured PD by the TER value and the area of one Transwell membrane (0.33 cm2). mpkCCDc14 cell cultures were treated with 100 μL CS-NP met (300 μM met), CS-NP, or PBS at pH 7.4.

For series [8] the following is noted: human, in vivo, cited from earlier work.
The nature of series [9]: Kidney health in PKD mice (i-Stat Chem-8+). In kind it is in vivo, Pkd1fl/fl; Pax8 rtTA; Tet-O-Cre mice. The note with it: day of harvest. On the procedure:
Serum components, electrolytes, and kidney health markers including sodium (Na), potassium (K), chloride (Cl), ionized calcium (iCa), total carbon dioxide (tCO2), glucose (Glu), blood urea nitrogen (BUN)/Urea, creatinine (Crea), hematocrit (Hct), hemoglobin (Hb), and anion gap (AnGap) were assessed in diseased Pkd1fl/fl; Pax8 rtTA; Tet-OCre mice. 90 μL of blood taken from the submandibular vein on the day of harvest was analyzed using Chem-8+ cartridges for the i-Stat Handheld Blood Analyzer (Abbott, Chicago, IL, USA).

Series [10] can be described thus: Encapsulation study of everolimus or rapamycin in micelles. The series is classed as physicochemical. On the procedure: Micelles were assembled by dissolving DSPE-PEG(2000)-methoxy in methanol at 100 μM with either everolimus or rapamycin at different lipid:drug molar ratios (2:1, 5:1, 10:1, 20:1), mixing the components, and evaporating the organic solvent under nitrogen. The resulting film was dried under vacuum over night, and then hydrated at 80° C. for 30 min in water and allowed to cool to room temperature overnight before DLS and TEM analysis. DLS measurements were determined at 90° and 637 nm using a Malvern Zetasizer. Free drug was separated by syringe filtering micelles using PTFE syringe filter, pore size 0.1 μm. To calculate encapsulation efficiency and drug loading, micelles were disrupted using DMSO and encapsulated drug was quantified by reading absorbance at 278 nm in a UV Greiner 96-well plate.

Where [11] appears, read: DSPE-PEG(2000)-methoxy:drug molar ratio 2:1.

In brackets after ≈: the same amount, converted by molar mass. Like-named read-outs stand apart in the source and are kept apart here. A value given as a limit tells only on which side of the number the result lay.

Chain of megalin (mouse) (A2ARV4 26-4660): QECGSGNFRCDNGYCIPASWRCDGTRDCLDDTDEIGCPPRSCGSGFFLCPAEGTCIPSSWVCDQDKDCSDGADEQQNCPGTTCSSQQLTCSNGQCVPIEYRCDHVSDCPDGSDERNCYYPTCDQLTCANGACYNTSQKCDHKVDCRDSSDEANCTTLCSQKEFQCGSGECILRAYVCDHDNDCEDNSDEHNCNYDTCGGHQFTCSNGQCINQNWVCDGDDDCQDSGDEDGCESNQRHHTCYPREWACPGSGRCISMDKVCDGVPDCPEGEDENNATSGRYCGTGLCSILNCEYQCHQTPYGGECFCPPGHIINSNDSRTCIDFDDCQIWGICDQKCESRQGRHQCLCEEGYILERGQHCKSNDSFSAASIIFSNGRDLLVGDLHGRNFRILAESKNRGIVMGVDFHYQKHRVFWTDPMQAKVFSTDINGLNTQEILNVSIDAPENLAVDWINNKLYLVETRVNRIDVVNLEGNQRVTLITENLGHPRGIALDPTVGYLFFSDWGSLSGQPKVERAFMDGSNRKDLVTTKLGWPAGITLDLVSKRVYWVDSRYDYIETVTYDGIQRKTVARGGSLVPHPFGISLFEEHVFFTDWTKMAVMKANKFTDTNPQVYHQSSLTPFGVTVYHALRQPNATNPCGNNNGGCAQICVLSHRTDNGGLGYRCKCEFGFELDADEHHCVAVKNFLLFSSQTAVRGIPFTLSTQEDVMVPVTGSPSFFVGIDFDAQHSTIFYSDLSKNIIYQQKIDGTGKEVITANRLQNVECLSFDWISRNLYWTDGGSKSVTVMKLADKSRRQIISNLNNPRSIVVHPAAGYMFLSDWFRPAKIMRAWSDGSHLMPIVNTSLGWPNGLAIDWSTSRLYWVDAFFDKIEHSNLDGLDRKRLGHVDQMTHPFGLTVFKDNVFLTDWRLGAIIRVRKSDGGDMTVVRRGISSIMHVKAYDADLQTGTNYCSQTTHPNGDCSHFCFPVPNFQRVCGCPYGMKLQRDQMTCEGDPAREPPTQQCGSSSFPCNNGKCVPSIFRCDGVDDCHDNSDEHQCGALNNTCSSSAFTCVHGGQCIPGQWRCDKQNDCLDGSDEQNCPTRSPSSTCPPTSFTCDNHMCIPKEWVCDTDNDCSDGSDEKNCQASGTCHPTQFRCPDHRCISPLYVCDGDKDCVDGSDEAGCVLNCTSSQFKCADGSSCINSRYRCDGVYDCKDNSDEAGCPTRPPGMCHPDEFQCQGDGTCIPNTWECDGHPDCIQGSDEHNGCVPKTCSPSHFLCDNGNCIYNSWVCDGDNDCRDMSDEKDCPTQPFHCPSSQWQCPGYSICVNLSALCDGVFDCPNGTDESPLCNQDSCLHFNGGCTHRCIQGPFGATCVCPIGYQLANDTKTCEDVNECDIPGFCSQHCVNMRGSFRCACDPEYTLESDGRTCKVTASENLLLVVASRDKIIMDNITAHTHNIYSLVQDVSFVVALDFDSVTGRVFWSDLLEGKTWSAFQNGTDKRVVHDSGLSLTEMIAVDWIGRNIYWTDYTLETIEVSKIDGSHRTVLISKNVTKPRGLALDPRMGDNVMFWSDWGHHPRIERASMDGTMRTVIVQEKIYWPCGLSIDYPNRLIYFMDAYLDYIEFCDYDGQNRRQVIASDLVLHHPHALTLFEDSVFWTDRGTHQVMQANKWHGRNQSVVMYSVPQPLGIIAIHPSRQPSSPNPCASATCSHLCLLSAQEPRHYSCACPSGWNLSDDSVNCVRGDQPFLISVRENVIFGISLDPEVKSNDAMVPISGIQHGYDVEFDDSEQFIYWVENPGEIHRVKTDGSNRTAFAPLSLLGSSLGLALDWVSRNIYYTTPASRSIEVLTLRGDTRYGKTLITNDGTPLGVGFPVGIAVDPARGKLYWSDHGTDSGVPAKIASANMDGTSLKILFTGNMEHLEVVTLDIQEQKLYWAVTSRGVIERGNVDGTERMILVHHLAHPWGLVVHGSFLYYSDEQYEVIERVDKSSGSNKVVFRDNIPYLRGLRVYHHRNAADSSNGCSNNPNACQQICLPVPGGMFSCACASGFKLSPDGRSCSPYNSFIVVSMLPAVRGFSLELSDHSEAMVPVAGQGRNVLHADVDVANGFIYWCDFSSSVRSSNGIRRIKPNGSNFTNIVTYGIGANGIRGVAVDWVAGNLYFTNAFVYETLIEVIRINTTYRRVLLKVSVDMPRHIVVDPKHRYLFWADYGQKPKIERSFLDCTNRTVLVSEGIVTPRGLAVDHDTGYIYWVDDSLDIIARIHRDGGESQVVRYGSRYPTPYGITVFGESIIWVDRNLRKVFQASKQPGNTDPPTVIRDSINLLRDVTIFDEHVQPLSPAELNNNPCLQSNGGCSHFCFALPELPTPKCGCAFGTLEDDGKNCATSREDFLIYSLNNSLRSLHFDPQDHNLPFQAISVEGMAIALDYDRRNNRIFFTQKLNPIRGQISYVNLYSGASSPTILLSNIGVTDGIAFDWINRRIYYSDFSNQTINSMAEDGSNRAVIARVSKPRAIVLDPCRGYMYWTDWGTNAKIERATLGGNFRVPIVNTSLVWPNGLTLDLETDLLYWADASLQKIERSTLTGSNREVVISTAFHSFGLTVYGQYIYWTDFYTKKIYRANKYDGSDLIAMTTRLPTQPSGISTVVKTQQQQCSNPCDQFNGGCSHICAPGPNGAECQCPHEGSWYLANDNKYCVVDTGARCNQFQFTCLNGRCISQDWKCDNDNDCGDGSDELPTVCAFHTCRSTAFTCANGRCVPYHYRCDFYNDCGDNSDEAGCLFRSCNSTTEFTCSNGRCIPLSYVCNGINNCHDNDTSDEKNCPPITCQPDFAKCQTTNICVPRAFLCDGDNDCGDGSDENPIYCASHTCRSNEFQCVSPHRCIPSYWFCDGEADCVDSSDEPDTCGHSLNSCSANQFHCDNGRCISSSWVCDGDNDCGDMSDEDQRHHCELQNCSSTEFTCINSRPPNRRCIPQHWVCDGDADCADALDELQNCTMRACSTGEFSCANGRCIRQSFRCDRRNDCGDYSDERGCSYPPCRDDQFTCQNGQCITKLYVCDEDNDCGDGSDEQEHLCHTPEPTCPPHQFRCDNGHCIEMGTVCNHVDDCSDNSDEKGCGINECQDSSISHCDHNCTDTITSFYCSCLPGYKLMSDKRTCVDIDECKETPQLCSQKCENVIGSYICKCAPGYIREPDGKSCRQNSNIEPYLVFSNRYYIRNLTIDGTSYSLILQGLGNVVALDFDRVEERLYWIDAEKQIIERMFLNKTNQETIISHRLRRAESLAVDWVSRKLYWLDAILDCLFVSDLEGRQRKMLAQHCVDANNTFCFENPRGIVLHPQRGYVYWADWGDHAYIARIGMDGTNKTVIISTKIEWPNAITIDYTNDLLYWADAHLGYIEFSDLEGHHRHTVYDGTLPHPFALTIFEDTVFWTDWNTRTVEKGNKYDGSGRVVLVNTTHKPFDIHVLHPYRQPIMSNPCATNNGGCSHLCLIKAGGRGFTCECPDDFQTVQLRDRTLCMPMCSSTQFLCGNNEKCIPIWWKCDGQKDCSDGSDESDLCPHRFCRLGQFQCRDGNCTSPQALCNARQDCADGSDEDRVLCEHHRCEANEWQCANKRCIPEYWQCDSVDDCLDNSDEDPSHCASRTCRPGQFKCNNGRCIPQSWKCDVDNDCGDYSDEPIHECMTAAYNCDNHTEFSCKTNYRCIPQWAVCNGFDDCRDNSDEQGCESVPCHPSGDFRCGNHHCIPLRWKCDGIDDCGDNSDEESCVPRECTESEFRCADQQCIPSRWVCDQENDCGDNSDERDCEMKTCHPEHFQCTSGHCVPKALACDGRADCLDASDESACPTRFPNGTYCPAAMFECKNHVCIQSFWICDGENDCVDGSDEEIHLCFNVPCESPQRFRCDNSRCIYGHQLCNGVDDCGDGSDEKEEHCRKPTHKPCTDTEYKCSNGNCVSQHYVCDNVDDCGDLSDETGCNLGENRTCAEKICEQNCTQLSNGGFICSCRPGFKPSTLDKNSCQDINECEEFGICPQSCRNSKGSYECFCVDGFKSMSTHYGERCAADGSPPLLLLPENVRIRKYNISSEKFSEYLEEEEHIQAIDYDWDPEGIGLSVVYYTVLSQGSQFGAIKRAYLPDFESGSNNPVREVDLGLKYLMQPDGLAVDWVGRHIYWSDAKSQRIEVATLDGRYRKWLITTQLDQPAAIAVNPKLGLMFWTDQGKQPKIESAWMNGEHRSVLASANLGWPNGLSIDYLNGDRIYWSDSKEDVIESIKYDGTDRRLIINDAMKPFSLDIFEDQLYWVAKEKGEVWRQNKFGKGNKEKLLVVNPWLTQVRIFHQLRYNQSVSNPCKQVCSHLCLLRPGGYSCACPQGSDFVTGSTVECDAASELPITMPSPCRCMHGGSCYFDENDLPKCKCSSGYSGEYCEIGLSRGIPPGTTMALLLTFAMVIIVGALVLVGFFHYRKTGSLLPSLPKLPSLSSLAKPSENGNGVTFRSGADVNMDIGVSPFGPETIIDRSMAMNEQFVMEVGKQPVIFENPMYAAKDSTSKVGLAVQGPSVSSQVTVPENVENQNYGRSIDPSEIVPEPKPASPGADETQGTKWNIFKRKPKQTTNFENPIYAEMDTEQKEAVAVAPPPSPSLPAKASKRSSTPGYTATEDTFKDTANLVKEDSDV

On to “KMGGTNHPE-C: cortical collecting duct (CCD)-targeting peptide, SEQ ID NO: 53 (KMGGTNHPEC; listed as Homo sapiens)”, for which, in series [1], the Water solubility entry is recorded as “Good”. The Targeting location entry in series [2] is “PCT and CCD”.

Consider “ELRGDRAKL-C: alternative CCD-targeting peptide, SEQ ID NO: 56 (ELRGDRAKLC; listed as Homo sapiens)”, for which the Water solubility entry in series [1] is listed as “Good”. For the same molecule, the Targeting location result in [2] is on record as “CCD”.

For the molecule `CCN(CC)c1ccc2c(-c3ccccc3C(=O)O)c3ccc(=[N+](CC)CC)cc-3oc2c1.[Cl-]` [free R, Rhodamine B], the intestinal localization result in series [3] is “localized to the duodenum and ileum”. Moreover, in series [4], the absolute bioavailability amounted to 47.9%. Further, the “reduction in transport between the colchicine and wortmannin conditions” value with Caco-2 cells is given as “No statistically significant reduction”. Moreover, the “changes in TER” value in the series on Caco-2 cell monolayers is reported as “No changes in TER”. Moreover, the “% of total organ fluorescence accumulation in the intestines” value in series [5] (3 h) is reported as 45.8±14.0%; in series [5] (24 h), 37.4±15.5%; in series [5] (48 h) it was 38.5±15.1%.

In the case of “45% PEG2000-(KKEEE)3K micelle (kidney-targeting peptide (KKEEE)3K with added N-terminal cysteine, conjugated to DSPE-PEG(2000)-maleimide)”, the Pearson's R value (colocalization) with megalin (mouse) was 0.48.

Turning to `Cc1ccccc1C(=O)Nc1ccc(C(=O)N2CCCC(O)c3cc(Cl)ccc32)c(C)c1` (stereo not drawn) [tolvaptan], the “clinical trial dropout rate” value in series [6] is listed as 23%.

As to `CO[C@H]1C[C@@H]2CC[C@@H](C)[C@@](O)(O2)C(=O)C(=O)N2CCCC[C@H]2C(=O)O[C@H]([C@H](C)C[C@@H]2CC[C@@H](O)[C@H](OC)C2)CC(=O)[C@H](C)/C=C(\C)[C@@H](O)[C@@H](OC)C(=O)[C@H](C)C[C@H](C)/C=C/C=C/C=C/1C` [Rapamycin], the solubility (usually the dissolved amount per volume that the medium holds) in “Solubility in MQ” lay within 0.005 to 0.02 mg/mL (≈ 5.47 to 21.9 µM).

For “MGSHIEPGG-C: cortical collecting duct (CCD)-targeting peptide, SEQ ID NO: 52 (MGSHIEPGGC; listed as Homo sapiens)”, the Water solubility result in [1] was “Good”. The Targeting location result in series [2] is “PCT and CCD”.

Regarding `CN(C)C(=N)N=C(N)N` [free met, metformin], the “phosphorylated AMPK to total AMPK compared to CS-NP” value in the series on AMPK is recorded as “significant increase”. The molecule also came in with an ENaC current in series [7] of 79.2 μA/cm2. Moreover, the “patients with gastrointestinal (GI) discomfort” value in series [8] is 25%. The “patients with complete intolerance for the drug” value in series [8] (listed as met) is on record as “approximately 5%”; in [8] (listed as metformin), 5%. The “serum components, electrolytes, and kidney health markers” value in series [9] is reported as “no significant difference between groups”.

The molecule “45% PEG2000-(EEKKK)3E micelle (peptide (EEKKK)3E with added N-terminal cysteine, conjugated to DSPE-PEG(2000)-maleimide)” registered a Pearson's R value (colocalization) in the series with megalin (mouse) of 0.53.

Turning to `CO[C@H]1C[C@@H]2CC[C@@H](C)[C@@](O)(O2)C(=O)C(=O)N2CCCC[C@H]2C(=O)O[C@H]([C@H](C)C[C@@H]2CC[C@@H](OCCO)[C@H](OC)C2)CC(=O)[C@H](C)/C=C(\C)[C@@H](O)[C@@H](OC)C(=O)[C@H](C)C[C@H](C)/C=C/C=C/C=C/1C` [Everolimus], in series [10] (setting [11]), the “Encapsulation efficiency (%)” value came out at 87.1 ± 2.0%, the “Loading capacity (wt/wt %)” value came out at 13.0 ± 0.3 wt/wt % and the “Moles drug per mole micelle” value was determined as 0.1 ± 0.01. Besides, the “Size (nm)” value in [10] (drug-loaded micelles, lipid:drug 2:1) was 21.0 ± 1.3 nm. This molecule also registered a solubility in the series “Solubility in MQ” of less than 0.1 mg/mL.

On to “CKDSPKSSKSIRFIPVST (listed as Homo sapiens)”, for which the Water solubility entry in series [1] is on record as “Good”. Moreover, the Targeting location entry in series [2] was “Type A”.
